Laboratory results: patent US9938262B2, “Benzamides” (Merck Patent GmbH, priority 2011, dated 2018)
pEC50: −log10 of the molar value.

Molecular target: T1, FSHR (Homo sapiens, UniProt P23945)
T1 construct: expressed in transfected cells; host or cells: CHO (Cho-FSHR-LUC-1-1-43)
Assay: EC50 of cyclic AMP production in CHO FSHR cells + EC20 FSH (Assay A)
Type: cell-based
Conditions: Table 1; for activation at 5 µM: 1 h, effect relative to maximum response of the FSH standard; for pEC50: CHO FSHR cells + EC20 FSH, read-out: Assay A EC50 of cyclic AMP production
Description: Example 10: EC50 of Cyclic AMP Production in CHO FSHR Cells+EC20 FSH (Assay A)
2500 Cho-FSHR-LUC-1-1-43 cells were plated per well in 5 μl of phenol red free DMEM/F12+1% FBS. Cells were plated in 384 well, solid white low volume plates (Greiner 784075) by Multidrop. Cells were assayed by adding 100 μl of 2×EC20 FSH/IBMX in DMEM/F12+0.1% BSA) by Multidrop to 2 μl of test compound stamped in 384 well plates (compounds are diluted 1:50). The final FSH concentration was […], and the final IBMX concentration was 200 μM. The compound plate map was as follows: Column 1: 2 μl of DMSO; Column 2: 2 μl of DMSO; Columns 3-12 and 13-24: 2 μl of test compound, diluted 1:4 in 100% DMSO, or 2 μl of FSH, diluted 1:4 in DMEM/F12+0.1% BSA. The starting concentration for FSH was 50 nM (final concentration was 0.5 nM). […] 5 μl of compound+EC20 FSH mixture were transferred to cell plates (1:2 dilution into 5 μl of cell media) The plates were incubated at 37° C. for 1 h. 10 μl of mixed HTRF (CisBio #62AM4PEC) reagents were added per well and incubated at room temperature for 1 h. The plates were read on Envision using the cAMP HTRF—low volume 384 well protocol. The readout was the calculated fluorescence ratio (665 nm/620 nm). Values given in percent (%) indicate the percental effect (response) at a certain concentration of agonist relative to the maximum response of the FSH standard.

T1 sequence (P23945 18-695): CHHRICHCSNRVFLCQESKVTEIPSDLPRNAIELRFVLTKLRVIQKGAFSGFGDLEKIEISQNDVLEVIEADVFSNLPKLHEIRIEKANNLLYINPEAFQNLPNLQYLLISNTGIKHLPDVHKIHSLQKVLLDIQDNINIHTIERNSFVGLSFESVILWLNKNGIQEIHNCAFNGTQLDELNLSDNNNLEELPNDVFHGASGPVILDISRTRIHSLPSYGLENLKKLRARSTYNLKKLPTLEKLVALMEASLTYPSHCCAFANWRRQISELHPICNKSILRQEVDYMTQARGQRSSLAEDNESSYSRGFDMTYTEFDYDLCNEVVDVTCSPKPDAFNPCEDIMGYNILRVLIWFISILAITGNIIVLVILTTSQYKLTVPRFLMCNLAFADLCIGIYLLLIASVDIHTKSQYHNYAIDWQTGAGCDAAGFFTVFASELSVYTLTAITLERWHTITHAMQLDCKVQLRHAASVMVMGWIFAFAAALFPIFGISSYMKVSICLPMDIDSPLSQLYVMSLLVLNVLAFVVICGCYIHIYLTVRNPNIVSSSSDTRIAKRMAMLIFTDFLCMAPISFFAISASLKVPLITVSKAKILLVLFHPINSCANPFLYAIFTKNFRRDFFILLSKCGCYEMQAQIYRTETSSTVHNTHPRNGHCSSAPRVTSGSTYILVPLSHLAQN
T1 sequence (P01215 25-116 partner): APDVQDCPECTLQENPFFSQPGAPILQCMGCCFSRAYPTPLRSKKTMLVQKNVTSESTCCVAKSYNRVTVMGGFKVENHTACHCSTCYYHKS
T1 sequence (P01225 19-129 partner): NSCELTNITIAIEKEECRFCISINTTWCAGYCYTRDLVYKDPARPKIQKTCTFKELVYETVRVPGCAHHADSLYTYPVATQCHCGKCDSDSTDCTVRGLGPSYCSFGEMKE

| Compound | activation at 5 µM [%] | pEC50 |
| --- | --- | --- |
| CCc1onc(C)c1C(=O)Nc1cc(C(=O)NCCCN2CCCC2=O)ccc1N1CCN(c2ccccc2C)CC1 [Compound 81] | 11 | – |
| Cc1ccccc1N1CCN(c2ccc(C(=O)NCCCN3CCCC3=O)cc2NC(=O)C2CCCCC2)CC1 [Compound 82] | – | 5.00 to 6.00 |
| Cc1ccccc1N1CCN(c2ccc(C(=O)NCCCN3CCCC3=O)cc2NC(=O)C2CCN(C)CC2)CC1 [Compound 83] | 8 | – |
| Cc1ccccc1N1CCN(c2ccc(C(=O)NCCCN3CCCC3=O)cc2NC(=O)c2cccc(N(C)C)c2)CC1 [Compound 86] | 47 | – |
| Cc1ccccc1N1CCN(c2ccc(C(=O)NCCCN3CCCC3=O)cc2NC(=O)c2ccccc2C(F)(F)F)CC1 [Compound 87] | – | 5.00 to 6.00 |
| Cc1ccccc1N1CCN(c2ccc(C(=O)NCCCN3CCCC3=O)cc2NC(=O)c2cccc3ccccc23)CC1 [Compound 88] | 34 | – |
| Cc1ccccc1N1CCN(c2ccc(C(=O)NCCCc3ccccc3)cc2NC(=O)c2ccco2)CC1 [Compound 89] | – | 6.00 to 7.00 |
| Cc1ccccc1N1CCN(c2ccc(C(=O)NCCCn3cccn3)cc2NC(=O)c2ccco2)CC1 [Compound 90] | – | 6.00 to 7.00 |
| Cc1ccccc1N1CCN(c2ccc(C(=O)N[C@@H](C)C(=O)NC3CCCC3)cc2NC(=O)c2ccco2)CC1 [Compound 91] | – | 5.00 to 6.00 |
| Cc1ccccc1N1CCN(c2ccc(C(=O)NCCCN3CCCC3=O)cc2NC(=O)C2CCCO2)CC1 (centres unmarked) [Compound 92] | – | 5.00 to 6.00 |
| COc1cccc(CNC(=O)c2ccc(N3CCN(c4ccccc4C)CC3)c(NC(=O)c3ccco3)c2)c1 [Compound 93, Furan-2-carboxylic acid [5-(3-methoxy-benzylcarbamoyl)-2-(4-o-tolyl-piperazin-1-yl)-phenyl]-amide] | – | 6.00 to 7.00 |
| Cc1ccccc1N1CCN(c2ccc(C(=O)NCc3ccc(C(F)(F)F)cc3)cc2NC(=O)c2ccco2)CC1 [Compound 94, Furan-2-carboxylic acid [2-(4-o-tolyl-piperazin-1-yl)-5-(4-trifluoromethyl-benzylcarbamoyl)-phenyl]-amide] | 48 | – |
| COc1cc(CNC(=O)c2ccc(N3CCN(c4ccccc4C)CC3)c(NC(=O)c3ccco3)c2)cc(OC)c1 [Compound 95, Furan-2-carboxylic acid [5-(3,5-dimethoxy-benzylcarbamoyl)-2-(4-o-tolyl-piperazin-1-yl)-phenyl]-amide] | – | 6.00 to 7.00 |
| Cc1ccccc1N1CCN(c2ccc(C(=O)NCc3cccc4ccccc34)cc2NC(=O)c2ccco2)CC1 [Compound 96, Furan-2-carboxylic acid [5-[(naphthalen-1-ylmethyl)-carbamoyl]-2-(4-o-tolyl-piperazin-1-yl)-phenyl]-amide] | – | < 5.00 |
| Cc1ccccc1N1CCN(c2ccc(C(=O)NCCCN3CCCC3=O)cc2NC(=O)c2ccno2)CC1 [Compound 98] | – | 5.00 to 6.00 |
| Cc1ccccc1N1CCN(c2ccc(C(=O)NCCCN3CCCC3=O)cc2NC(=O)c2cncs2)CC1 [Compound 99] | 35 | – |
| CCNc1nc(C)c(C(=O)Nc2cc(C(=O)NCCCN3CCCC3=O)ccc2N2CCN(c3ccccc3C)CC2)s1 [Compound 100] | 12 | – |
| Cc1ccccc1N1CCN(c2ccc(C(=O)NCCCN3CCCC3=O)cc2NC(=O)c2csc(Br)n2)CC1 [Compound 101] | – | 5.00 to 6.00 |
| Cc1nc(C(=O)Nc2cc(C(=O)NCCCN3CCCC3=O)ccc2N2CCN(c3ccccc3C)CC2)c(C)o1 [Compound 102] | – | 5.00 to 6.00 |
| Cc1ccccc1N1CCN(c2ccc(C(=O)NCCCN3CCCC3=O)cc2NC(=O)c2cocn2)CC1 [Compound 103] | – | 5.00 to 6.00 |
| Cc1ccccc1N1CCN(c2ccc(C(=O)NCCCN3CCCC3=O)cc2NC(=O)c2c(C)noc2C)CC1 [Compound 106] | 33 | – |

| Compound | activation at 5 µM [%] | pEC50 |
| --- | --- | --- |
| Cc1ccccc1N1CCN(c2ccc(C(=O)NCCCN3CCCC3=O)cc2NC(=O)c2cnoc2C)CC1 [Compound 107] | 15 | – |
| Cc1ccccc1N1CCN(c2ccc(C(=O)NCCCN3CCCC3=O)cc2NC(=O)c2cnoc2C2CC2)CC1 [Compound 109] | 10 | – |
| Cc1ccccc1N1CCN(c2ccc(C(=O)NCCCN3CCCC3=O)cc2NC(=O)c2csnn2)CC1 [Compound 110] | – | 5.00 to 6.00 |
| Cc1ccccc1C(=O)Nc1cc(C(=O)NCCCN2CCCC2=O)ccc1N1CCN(c2ccccc2C)CC1 [Compound 111] | – | 5.00 to 6.00 |
| Cc1ccccc1N1CCN(c2ccc(C(=O)NCCCN3CCCC3=O)cc2NC(=O)c2cccc3c2CCCC3)CC1 [Compound 112] | 21 | – |
| Cc1ccccc1N1CCN(c2ccc(C(=O)NCCCN3CCCC3=O)cc2NC(=O)c2ccc3ccn(C)c3c2)CC1 [Compound 114] | 40 | – |
| Cc1ccccc1N1CCN(c2ccc(C(=O)NCCCN3CCCC3=O)cc2NC(=O)c2cccc3nccnc23)CC1 [Compound 115] | 39 | – |
| Cc1ccccc1N1CCN(c2ccc(C(=O)NCCCn3ccnc3)cc2NC(=O)c2ccco2)CC1 [Compound 116] | – | 6.00 to 7.00 |
| Cc1ccccc1N1CCN(c2ccc(C(=O)NCCCN3CCCC3)cc2NC(=O)c2ccco2)CC1 [Compound 117] | – | 5.00 to 6.00 |
| Cc1ccccc1N1CCN(c2ccc(C(=O)NCCCn3ccnc3C)cc2NC(=O)c2ccco2)CC1 [Compound 118] | – | 6.00 to 7.00 |
| Cc1ccccc1N1CCN(c2ccc(C(=O)NCCS(=O)(=O)N3CCCC3)cc2NC(=O)c2ccco2)CC1 [Compound 119] | – | 6.00 to 7.00 |
| Cc1ccccc1N1CCN(c2ccc(C(=O)NCCC(=O)N3CCCC3)cc2NC(=O)c2ccco2)CC1 [Compound 120] | – | 6.00 to 7.00 |
| COc1ccc(CNC(=O)c2ccc(N3CCN(c4ccccc4C)CC3)c(NC(=O)c3ccco3)c2)cc1 [Compound 122] | 24 | – |
| COc1ccccc1CNC(=O)c1ccc(N2CCN(c3ccccc3C)CC2)c(NC(=O)c2ccco2)c1 [Compound 124, Furan-2-carboxylic acid [5-(2-methoxy-benzylcarbamoyl)-2-(4-o-tolyl-piperazin-1-yl)-phenyl]-amide] | 82 | – |
| O=C(NCCCN1CCCC1=O)c1ccc(N2CCN(c3ccccn3)CC2)c(NC(=O)c2ccco2)c1 [Compound 126] | 33 | – |
| COc1ccc(C(=O)Nc2cc(C(=O)NCCCN3CCCC3=O)ccc2N2CCN(c3ccccc3C)CC2)cc1OC [Compound 127] | 33 | – |
| Cc1ccccc1N1CCN(c2ccc(C(=O)NCCCN3CCCC3=O)cc2NC(=O)c2ccc(Cl)cn2)CC1 [Compound 129] | – | 6.00 to 7.00 |
| Cc1ccc(C(=O)Nc2cc(C(=O)NCCCN3CCCC3=O)ccc2N2CCN(c3ccccc3F)CC2)o1 [Compound 130, 5-Methyl-furan-2-carboxylic acid {2-[4-(2-fluoro-phenyl)-piperazin-1-yl]-5-[3-(2-oxo-pyrrolidin-1-yl)-propylcarbamoyl]-phenyl}-amide] | – | 5.00 to 6.00 |
| Cc1ccccc1N1CCN(c2ccc(C(=O)NCc3ccc(Cl)cc3)cc2NC(=O)c2ccco2)CC1 [Compound 131, Furan-2-carboxylic acid [5-(4-chloro-benzylcarbamoyl)-2-(4-o-tolyl-piperazin-1-yl)-phenyl]-amide] | – | 6.00 to 7.00 |
| CNCCNC(=O)c1ccc(N2CCN(c3ccccc3C)CC2)c(NC(=O)c2ccco2)c1 [Compound 132, Furan-2-carboxylic acid [5-(2-methylamino-ethylcarbamoyl)-2-(4-o-tolyl-piperazin-1-yl)-phenyl]-amide] | – | 5.00 to 6.00 |
